# Data from patent publication US3992446A, “Substituted aminochlorobenzylamino guanidine compounds” (American Cyanamid Company, priority 1975, dated 1976).
# Counter-ions that a name gives are not always drawn. Like-named read-outs stand apart in the source and are kept apart here.
# Assays:
# Type in all cases: in vivo
# Eimeria tenella = assay: anticoccidial activity against Eimeria tenella in inoculated Peterson Cross Cockerels, medicated diet, survival; details: 168 h; for responders at 120 µg/mL: 120 parts per million in diet; for responders at 15 µg/mL: 15 parts per million in diet; for responders at 20 µg/mL: 20 parts per million in diet
# Text: (§1) For example, these compounds have anticoccidial activity against Eimeria tenella as shown by the following test: The animals were Peterson Cross Cockerels, 7 days old and of approximately equal size and weight. These cockerels were divided into groups and the groups were placed in separate cages with wire floors. Medicated and control diets were then presented to the groups of birds 2 days before inoculation while they were still in uncontaminated quarters. During the entire period of the tests, the birds ate and drank ad libitum. Control groups were maintained on a standard unmedicated commercial type chicken diet. Test groups were maintained on the same standard diet in which a measured concentration of test compound had been incorporated homogeneously. The cockerels were inoculated once orally with sporulated oocysts of Eimeria tenella. The number of oocysts inoculated directly into the crops of all cockerels in the tests was sufficient to produce high mortality in the untreated controls. […] Seven days following inoculation the tests were terminated and the mortality rate was recorded for each group. […] The tests represent very severe laboratory challenges, and lower concentrations than those shown would be effective under practical field conditions.
# coccidia = assay: anti-coccidial activity, comparison with prior art compounds of Lieber et al.
# E. acervulina = assay: anticoccidial activity against E. acervulina in chickens (survival, weight gain)
# Text: as §1
# (§2) The compounds of the present invention have high activity against other coccidial species in chickens. […] Methods used were essentially identical with those previously cited with appropriate modifications. Weight gains were determined 7 days after single experimental inoculations with the designated species of coccidia.
# Eimeria necatrix = assay: anticoccidial activity against Eimeria necatrix in chickens (survival, weight gain); details: for % Survival / Weight gain: necatrix; for Weight gain: 7 days after inoculation
# Text: as §1, §2
# E. mivati = assay: anticoccidial activity against E. mivati in chickens (survival, weight gain); details: for % Survival / Weight gain: mivati; for Weight gain: 7 days after inoculation
# Text: as §1, §2
# E. brunetti = assay: anticoccidial activity against E. brunetti in chickens (survival, weight gain); details: for % Survival / Weight gain: brunetti; for Weight gain: 7 days after inoculation
# Text: as §1, §2
# E. maxima = assay: anticoccidial activity against E. maxima in chickens (survival, weight gain); details: for % Survival / Weight gain: maxima; for Weight gain: 7 days after inoculation
# Text: as §1, §2
# [1] = 30 parts per million in diet, 7 days after inoculation, read-out: % Survival
# [2] = 10 parts per million in diet, 7 days after inoculation, read-out: % Survival
smiles,measurement,setting,value
"N=C(NN=Cc1ccc(Cl)c(Cl)c1)NN=Cc1ccc(Cl)c(Cl)c1 [1,3-Bis(3,4-dichlorobenzylideneamino)guanidine Nitrate]",responders at 60 µg/mL,Eimeria tenella; read-out: % Survival,100%
"N=C(NN=Cc1ccc(Br)cc1)NN=Cc1ccc(Br)cc1.O=[N+]([O-])O [1,3-Bis(4-bromobenzylideneamino)guanidine Nitrate]",responders at 17 µg/mL,Eimeria tenella; read-out: % Survival,80%
same,responders at 35 µg/mL,Eimeria tenella; read-out: % Survival,95%
same,Activity (anti-coccidial),coccidia; dosage 17 parts per million,active
"CN(N=Cc1ccc(Cl)cc1)C(=N)N(C)N=Cc1ccc(Cl)cc1 [1,3-Bis(4-chlorobenzylideneamino)-1,3-dimethylguanidine hydrobromide]",responders at 30 µg/mL,Eimeria tenella; [1],100%
same,responders at 120 µg/mL,Eimeria tenella; 7 days after inoculation,100%
"N=C(NN=Cc1ccc(Cl)cc1)NN=Cc1ccc(Cl)cc1.O=[N+]([O-])O [1,3-Bis(4-chlorobenzylideneamino)guanidine nitrate]",responders at 18 µg/mL,Eimeria tenella; read-out: % Survival,77%
same,responders at 36 µg/mL,Eimeria tenella; read-out: % Survival,96%
same,responders at 54 µg/mL,Eimeria tenella; read-out: % Survival,100%
same,% Survival,"E. acervulina; acervulina, 45 ppm in diet",100%
same,Weight gain,"E. acervulina; acervulina, 45 ppm in diet, 7 days after inoculation",99 % control
same,Activity (anti-coccidial),coccidia; dosage 18 parts per million,active
"N=C(NN=Cc1ccc(Cl)cc1)NN=Cc1ccc(Cl)cc1 [1,3-Bis(4-chlorobenzylideneamino)guanidine]",protection from mortality due to Eimeria necatrix,Eimeria necatrix; treated chickens,completely protected
same,protection from poor weight gains due to E. acervulina,E. acervulina; treated chickens,completely protected
same,protection from poor weight gains due to E. mivati,E. mivati; treated chickens,completely protected
same,protection from poor weight gains due to E. brunetti,E. brunetti; treated chickens,completely protected
same,protection from poor weight gains due to E. maxima,E. maxima; treated chickens,completely protected
"N#Cc1ccc(C=NNC(=N)NN=Cc2ccc(C#N)cc2)cc1 [1,3-Bis(4-cyanobenzylideneamino)guanidine Nitrate]",responders at 30 µg/mL,Eimeria tenella; read-out: % Survival,80%
same,responders at 60 µg/mL,Eimeria tenella; read-out: % Survival,100%
"N=C(NN=Cc1ccc(F)cc1)NN=Cc1ccc(F)cc1 [1,3-Bis(4-fluorobenzylideneamino)guanidine Nitrate]",responders at 93 µg/mL,Eimeria tenella; read-out: % Survival,80%
"Cl.N=C(NN=Cc1ccc(I)cc1)NN=Cc1ccc(I)cc1 [1,3-Bis(4-iodobenzylideneamino)guanidine Hydrochloride]",responders at 30 µg/mL,Eimeria tenella; [1],55%
same,Activity (anti-coccidial),coccidia; dosage 30 parts per million,active
"N=C(NN=Cc1ccc(C(F)(F)F)cc1)NN=Cc1ccc(C(F)(F)F)cc1 [1,3-Bis(4-trifluoromethylbenzylideneamino)guanidine hydrochloride]",responders at 120 µg/mL,Eimeria tenella; 7 days after inoculation,100%
"N=C(NN=Cc1ccc(OC(F)(F)F)cc1)NN=Cc1ccc(OC(F)(F)F)cc1 [1,3-bis(4-Trifluoromethoxybenzylideneamino)guanidine Hydrochloride]",responders at 5 µg/mL,Eimeria tenella; read-out: % Survival,80%
same,responders at 10 µg/mL,Eimeria tenella; read-out: % Survival,100%
"N=C(NNCc1ccc(Cl)cc1)NNCc1ccc(Cl)cc1 [1,3-bis(4-chlorobenzylamino)guanidine]",responders at 10 µg/mL,Eimeria tenella; [2],90%
same,responders at 15 µg/mL,Eimeria tenella; 7 days after inoculation,90%
same,responders at 20 µg/mL,Eimeria tenella; 7 days after inoculation,100%
"Cl.N=C(NN=Cc1ccc(Cl)cc1)NN=Cc1ccc(Cl)cc1 [1,3-bis(4-chlorobenzylideneamino)-guanidine hydrochloride]",responders at 8.5 µg/mL,Eimeria tenella; read-out: % Survival,45%
same,responders at 17 µg/mL,Eimeria tenella; read-out: % Survival,75%
same,responders at 33 µg/mL,Eimeria tenella; read-out: % Survival,100%
same,% Survival,E. mivati; 15 ppm in diet,100%
same,Weight gain,E. mivati; 15 ppm in diet,86 % control
same,% Survival,E. mivati; 30 ppm in diet,100%
same,Weight gain,E. mivati; 30 ppm in diet,91 % control
same,% Survival,E. mivati; 45 ppm in diet,100%
same,Weight gain,E. mivati; 45 ppm in diet,100 % control
same,% Survival,E. brunetti; 15 ppm in diet,100%
same,Weight gain,E. brunetti; 15 ppm in diet,100 % control
same,% Survival,E. brunetti; 30 ppm in diet,100%
same,Weight gain,E. brunetti; 30 ppm in diet,95 % control
same,Activity (anti-coccidial),coccidia; dosage 8.5 parts per million,active
same,% Survival,E. maxima; 15 ppm in diet,100%
same,Weight gain,E. maxima; 15 ppm in diet,101 % control
same,% Survival,E. maxima; 30 ppm in diet,100%
same,Weight gain,E. maxima; 30 ppm in diet,95 % control
same,% Survival,E. maxima; 45 ppm in diet,100%
same,Weight gain,E. maxima; 45 ppm in diet,100 % control
"N=C(NN=Cc1ccc(Cl)cc1)NN=Cc1ccc(Cl)cc1 [1,3-bis(4-chlorobenzylideneamino)guanidine methosulfate]",responders at 20 µg/mL,Eimeria tenella; 7 days after inoculation,59%
same,responders at 40 µg/mL,"Eimeria tenella; 40 parts per million in diet, 7 days after inoculation",90%
same,responders at 60 µg/mL,"Eimeria tenella; 60 parts per million in diet, 7 days after inoculation, read-out: % Survival",98%
same,% Survival,Eimeria necatrix; 15 ppm in diet,100%
same,Weight gain,Eimeria necatrix; 15 ppm in diet,80 % control
same,% Survival,Eimeria necatrix; 30 ppm in diet,100%
same,Weight gain,Eimeria necatrix; 30 ppm in diet,103 % control
same,Activity (anti-coccidial),coccidia; dosage 20 parts per million,active
N=C(NN=Cc1ccc(Cl)cc1)NNCc1ccc(Cl)cc1 [1-(4-Chlorobenzylamino)-3-(4-chlorobenzylideneamino)guanidine],responders at 15 µg/mL,Eimeria tenella; 7 days after inoculation,90%
same,responders at 30 µg/mL,Eimeria tenella; [1],100%
"CC(=O)N=C(NN=Cc1ccc(Cl)cc1)NN=Cc1ccc(Cl)cc1 [2-acetyl-1,3-bis(4-chlorobenzylideneamino)guanidine]",responders at 5 µg/mL,"Eimeria tenella; 5 parts per million in diet, 7 days after inoculation, read-out: % Survival",67%
same,responders at 10 µg/mL,Eimeria tenella; [2],95%
same,responders at 30 µg/mL,Eimeria tenella; [1],100%
"O=Cc1ccc2c(c1)OCO2 [9) piperonal, reference compound]",Activity (anti-coccidial),coccidia; dosage 125 parts per million,inactive
"O=Cc1ccccc1O [11) salicylaldehyde, reference compound]",Activity (anti-coccidial),coccidia; dosage 125 parts per million,inactive
"O=Cc1ccccc1O [12) salicylaldehyde, reference compound]",Activity (anti-coccidial),coccidia; dosage 200 parts per million,inactive
"CC(=O)c1ccccc1 [14) acetophenone, reference compound]",Activity (anti-coccidial),coccidia; dosage 250 parts per million,inactive
